The values below come from patent US8211909B2, “Treatment of antibiotic-resistant bacteria infection” (TaiGen Biotechnology Co., Ltd., priority 2008, dated 2012).

The subject of experiment [1] is Methicillin-resistant Staphylococcus aureus (MRSA) isolates. As to the kind of experiment: MIC by broth microdilution (CLSI) against CAN-ICU MRSA isolates. The format is cell-based. The settings on record: Staphylococcus aureus; for MIC50: read-out: MIC50; for MIC90: read-out: MIC90. The text has this:
MRSA isolates (n=193) were obtained as part of the Canadian National Intensive Care Unit (CAN-ICU) Study. 19 medical centers from all regions of Canada with active ICUs participated in the CAN-ICU study included. They were requested to only obtain “clinically significant” specimens from patients with a presumed infectious disease. Surveillance swabs, eye, ear, nose and throat swabs were excluded. Anaerobic organisms and fungal organisms were also excluded.
From September 2005-June 2006 (inclusive), each center collected a maximum of 300 consecutive pathogens isolated from blood, urine, tissue/wound, and respiratory specimens (one pathogen per cultured site per patient) of ICU patients. These isolates were shipped to the reference laboratory (Health Sciences Centre, Winnipeg, Canada) on Amies charcoal swabs, subcultured in appropriate media, and stocked in skim milk at −80° C.
All isolates underwent mecA PCR, as well as molecular characterization (including PVL analysis and fingerprinting), as previously described, to assess whether they were community-associated or healthcare-associated (Christianson et al., J Clin Microbiol. 2007, 45 (6): 1904-11; Mulvey et al., J Clin. Microbiol. 2001, 39(10): 3481-5; Mulvey et al., Emerg Infect Dis. 2005,11(6): 844-50; Oliveira et al., Antimicrob Agents Chemother. 2002, 46(7): 2155-61). The isolates were also subtyped using pulsed-field gel electrophoresis (PFGE) following the Canadian standardized protocol as previously described (Mulvey et al., J Clin Microbiol. 2001, 39(10): 3481-5). Their PFGE fingerprints thus obtained were analyzed with BioNumerics v3.5 (Applied Maths St. Marten-Latem, Belgium) using a position tolerance of 1.0 and an optimization of 1.0. Strain relatedness was determined as previously described (Tenover et al., 1995). The fingerprints of the isolates were compared to the national MRSA fingerprint database and were grouped into one of 10 Canadian epidemic MRSA (CMRSA-1, CMRSA-2, etc) as previously described (Mulvey et al., Emerg Infect Dis. 2005,11(6):844-50).
Compound 1 and other antibiotics were tested for their inhibitory activity against the MRSA isolates using the broth microdilution guidelines as stipulated by the Clinical and Laboratory Standards Institute.
Background: Dilution methods test growth across graded concentrations, often in twofold steps.

For experiment [2], the system named is Staphylococcus aureus strains (MRSA, hVISA, VISA, VRSA, quinolone-resistant MRSA). Description: MIC by agar dilution against Staphylococcal strains (MRSA, hVISA, VISA, VRSA, quinolone-resistant MRSA). The format is cell-based. The following applies: Staphylococcus aureus. The protocol:
Compound 1 was tested for its inhibitory effect against 26 Methicillin-resistant Staphylococcus aureus (MRSA) strains, 2 hetero-Vancomycin intermediate Staphylococcus aureus (hVISA) strains, 24 Vancomycin-intermediate Staphylococcus aureus (VISA) strains, 5 Vancomycin-resistant Staphylococcus aureus (VRSA) strains, and 31 quinolone-resistant Vancomycin-susceptibale MRSA strains with defined mutations in QRDR. These mutations were determined by sequencing analysis of the QRDR (gyrA, gyrB, grlA, and grlB). Efflux testing was performed by the reserpine method (Brenwald, et al., Antimicrob. Agents Chemother. 1998, 42: 2032-2035).
On the technique in general: In agar dilution the substance is mixed into plates at graded concentrations.

Experiment [3] relates to H. pylori isolates. Description: MIC by agar dilution against 200 H. pylori isolates (Taiwan). The format is cell-based, Helicobacter pylori. The settings on record: Helicobacter pylori; 200 isolates of H. pylori. The protocol:
MICs were determined using the agar dilution methods recommended by the Clinical and Laboratory Standards Institute (CLSI-M100-S18).

Setting [4] is: MRSA (n = 193), read-out: MIC Range Max.
The mark [5] stands for this setting: MRSA (n = 193), read-out: MIC Range Min.
The mark [6] stands for this setting: hVISA(2) + VISA (24) + VRSA (5).
Setting [7] is: read-out: MIC Range, Quinolone-resistant MRSA (31).
[8] abbreviates: read-out: MIC Range, hVISA(2) + VISA (24) + VRSA (5).
Where [9] appears, read: MRSA / USA100, USA 100/800 (HA-MRSA).
Setting [10] is: MRSA / USA200, USA 200 (HA-MRSA).
Setting [11] is: MRSA / USA300, USA 300 (CA-MRSA).
[12] abbreviates: MRSA / USA400, USA 400 (CA-MRSA).
Setting [13] is: MRSA / USA600, USA 600 (HA-MRSA).

SMILES strings stand for the structures. ≈ marks a conversion by molar mass, not a printed value. Where two headings read alike, the source gives them in different places.

The MIC50 is the lowest concentration that inhibits either 50% of growth or 50% of the strains tested, depending on the study. In general, MIC90 refers to an inhibitory concentration at the 90% level, which refers to growth in some studies and to a panel of isolates in others. Usually MIC stands for the lowest concentration found to suppress growth. `Cc1nnc(SCC2=C(C(=O)O)N3C(=O)[C@@H](NC(=O)Cn4cnnn4)[C@H]3SC2)s1` [Cefazolin]: in experiment [1] (MRSA (n = 193)), the MIC50 was 128 µg/mL (≈ 282 µM) and the MIC90 is more than 128 µg/mL. Besides, the MIC in experiment [1] (setting [4]) is more than 128 µg/mL. Further, the MIC in experiment [1] (setting [5]) came out at 2 µg/mL (≈ 4.4 µM).

Take `CO/N=C(\C(=O)N[C@@H]1C(=O)N2C(C(=O)O)=C(CSc3nc(=O)c(=O)[nH]n3C)CS[C@H]12)c1csc(N)n1` [Ceftriaxone]: in experiment [1] (MRSA (n = 193)), the MIC50 was more than 64 µg/mL and the MIC90 is more than 64 µg/mL. Also, the MIC in experiment [1] (setting [4]) is more than 64 µg/mL. In experiment [1] (setting [5]), the MIC stood at 8 µg/mL (≈ 14.4 µM).

Take `CCC[C@@H]1C[C@@H](C(=O)N[C@@H]([C@H]2O[C@H](SC)[C@H](O)[C@@H](O)[C@H]2O)[C@H](C)Cl)N(C)C1` [Clindamycin]: the MIC50 in experiment [1] (MRSA (n = 193)) is more than 8 µg/mL. In experiment [1] (MRSA (n = 193)), the MIC90 was more than 8 µg/mL. In addition, the values for the MIC in experiment [1] (setting [4]) and in experiment [1] (setting [5]) were more than 8 µg/mL and not above 0.12 µg/mL, respectively.

`CCCCCCCCCC(=O)N[C@@H](Cc1c[nH]c2ccccc12)C(=O)N[C@H](CC(N)=O)C(=O)N[C@@H](CC(=O)O)C(=O)N[C@@H]1C(=O)NCC(=O)N[C@@H](CCCN)C(=O)N[C@@H](CC(=O)O)C(=O)N[C@H](C)C(=O)N[C@@H](CC(=O)O)C(=O)NCC(=O)N[C@H](CO)C(=O)N[C@@H]([C@H](C)CC(=O)O)C(=O)N[C@@H](CC(=O)c2ccccc2N)C(=O)O[C@@H]1C` [Daptomycin]: the MIC50 came out at 1 µg/mL (≈ 0.617 µM) in experiment [2] (MRSA (26)), 0.25 µg/mL (≈ 0.154 µM) in experiment [2] (Quinolone-resistant MRSA (31)), 1 µg/mL in experiment [2] (setting [6]) and 0.25 µg/mL (≈ 0.154 µM) in experiment [1] (MRSA (n = 193)). Also, the MIC90 in experiment [2] (MRSA (26)) turned out to be 1 µg/mL (≈ 0.617 µM); in experiment [2] (Quinolone-resistant MRSA (31)), 0.25 µg/mL (≈ 0.154 µM); in experiment [2] (setting [6]) it was 2 µg/mL; in experiment [1] (MRSA (n = 193)), 0.5 µg/mL (≈ 0.309 µM). The MIC in experiment [2] (read-out: MIC Range, MRSA (26)) was 0.5 to 1 µg/mL (≈ 0.309 to 0.617 µM); in experiment [2] (setting [7]), 0.12 to 1 µg/mL (≈ 0.074 to 0.617 µM); in experiment [2] (setting [8]), 0.12 to 4 µg/mL; in experiment [1] (setting [4]), 0.5 µg/mL (≈ 0.309 µM); in experiment [1] (setting [5]), 0.25 µg/mL (≈ 0.154 µM).

`CO/N=C1\CN(c2nc3c(cc2F)c(=O)c(C(=O)O)cn3C2CC2)CC1CN` (centres unmarked) [Gemifloxacin]: in experiment [3], the MIC50 amounted to 60 µg/mL (≈ 154 µM) and the MIC90 was 120 µg/mL (≈ 308 µM).

As for `CC(=O)NC[C@H]1CN(c2ccc(N3CCOCC3)c(F)c2)C(=O)O1` [Linezolid], the MIC50 in experiment [2] (MRSA (26)) came to 4 µg/mL (≈ 11.9 µM); in experiment [2] (Quinolone-resistant MRSA (31)) it was 1 µg/mL (≈ 2.96 µM); in experiment [2] (setting [6]) it was 1 µg/mL; in experiment [1] (setting [9]), 2 µg/mL (≈ 5.93 µM); in experiment [1] (setting [10]), 2 µg/mL (≈ 5.93 µM); in experiment [1] (setting [11]), 1 µg/mL (≈ 2.96 µM). Also, the MIC50 in experiment [1] (setting [12]), in experiment [1] (setting [13]) and in experiment [1] (MRSA (n = 193)) was 2 µg/mL (≈ 5.93 µM) throughout. Moreover, the MIC90 in experiment [2] (MRSA (26)) amounted to 4 µg/mL (≈ 11.9 µM); in experiment [2] (Quinolone-resistant MRSA (31)) it was 1 µg/mL (≈ 2.96 µM); in experiment [2] (setting [6]), 1 µg/mL; in experiment [1] (setting [9]) it was 2 µg/mL (≈ 5.93 µM); in experiment [1] (setting [10]), 2 µg/mL (≈ 5.93 µM); in experiment [1] (setting [11]) it was 2 µg/mL (≈ 5.93 µM). Further, the MIC90 in experiment [1] (setting [12]), in experiment [1] (setting [13]) and in experiment [1] (MRSA (n = 193)) was 2 µg/mL (≈ 5.93 µM) each time. In addition, the MIC is 2 to 4 µg/mL (≈ 5.93 to 11.9 µM) in experiment [2] (read-out: MIC Range, MRSA (26)); 0.25 to 1 µg/mL (≈ 0.741 to 2.96 µM) in experiment [2] (setting [7]); 0.5 to 2 µg/mL in experiment [2] (setting [8]); 4 µg/mL (≈ 11.9 µM) in experiment [1] (setting [4]); 0.5 µg/mL (≈ 1.48 µM) in experiment [1] (setting [5]).
